Assay results reported in patent publication US5698522A, “6-position modified decapeptide LHRH antagonists” (Abbott Laboratories, priority 1995, dated 1997).
*1 amine or outer side, *2 acyl side, *3 side chain or, on linkers, in order; H or OH if unused. Where a SMILES comes first, the peptide text is derived from it. Side-chain parts run from the residue outwards. [ ]: non-standard residue; d: D form. The star is where a group is joined. Shikimoyl = O=C(C1=C[C@@H](O)[C@@H](O)[C@H](O)C1)*; dPhe(4-Cl) = N[C@H](Cc1ccc(Cl)cc1)C(=O)O; d2Nal = N[C@H](Cc1ccc2ccccc2c1)C(=O)O; Acetyl(3-pyridyl) = O=C(Cc1cccnc1)*; Lys(iPr) = CC(C)NCCCC[C@H](N)C(=O)O; NMeY = CN[C@@H](Cc1ccc(O)cc1)C(=O)O; Ethylenediamine = C(CN[*:2])N[*:1]; d3Pal = N[C@H](Cc1cccnc1)C(=O)O; Nicotinoyl = O=C(c1cccnc1)*; dOrn = NCCC[C@@H](N)C(=O)O; CO = O=C([*:1])[*:2]; Propionyl = CCC(=O)*; Ahx = NCCCCCC(=O)O; GABA = NCCCC(=O)O; azaGly = NNC(=O)O; βAla = NCCC(=O)O

Target: T1, LHRH receptor (Rattus norvegicus, UniProt P30969)
T1 construct: endogenous in cells
T1 sequence (P30969 1-327): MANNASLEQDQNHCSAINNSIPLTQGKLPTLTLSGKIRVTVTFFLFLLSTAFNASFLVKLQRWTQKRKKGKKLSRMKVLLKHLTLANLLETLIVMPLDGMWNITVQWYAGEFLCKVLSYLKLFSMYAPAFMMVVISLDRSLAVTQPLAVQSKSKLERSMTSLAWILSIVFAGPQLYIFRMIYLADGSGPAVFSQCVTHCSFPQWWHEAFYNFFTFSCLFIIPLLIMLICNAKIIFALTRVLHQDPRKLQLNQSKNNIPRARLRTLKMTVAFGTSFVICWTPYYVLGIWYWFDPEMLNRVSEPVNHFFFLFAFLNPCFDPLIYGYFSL
Assay: in vitro LHRH antagonist potency (pA2) against the agonist leuprolide
Format: cell-based
Conditions: negative logarithm of the antagonist concentration which shifts the response curve produced by the agonist leuprolide to two-fold higher concentration
Experimental: Representative compounds of the present invention were evaluated in in vitro tests for receptor binding (pKI) and for LHRH antagonist potency (pA2). The tests employed the methods detailed in F. Haviv, et al., J. Med. Chem., 32: 2340-2344 (1989). The receptor binding affinities (pKI) are the negative logarithms of the equilibtirum dissociation constants (pA2) are the negative logarithms of the concentration of antagonist which shift the response curve roduced by the agonist leuprolide to two-fold higher concentration. (Leuprolide is the LHRH agonist having the structure 5-oxo-Pro^1 -His^2 -Trp^3 -Ser^4 -Tyr^5 -D-Leu^6 -Leu^7 -Arg^8 -Pro^9 -NHEt and is disclosed and claimed in U.S. Pat. No. 4,005,063.) Typically pA2 values of 9.5 or greater are indicative of good LHRH antagonist potency.

SMILES	Kb [nM]
CC(=O)N[C@H](Cc1ccc2ccccc2c1)C(=O)N[C@H](Cc1ccc(Cl)cc1)C(=O)N[C@H](Cc1cccnc1)C(=O)N[C@@H](CO)C(=O)N(C)[C@@H](Cc1ccc(O)cc1)C(=O)N[C@H](CCCCNC(=O)CCCNC(=O)NNC(=O)c1cccnc1)C(=O)N[C@@H](CC(C)C)C(=O)N[C@@H](CCCCNC(C)C)C(=O)N1CCC[C@H]1C(=O)N[C@H](C)C(N)=O [Example 25b, NAc-D2Nal^1 -D4ClPhe^2 -D3Pal^3 -Ser^4 -NMeTyr^5 -DLys[N-epsilon-(gamma-Aminobutyryl)-Azagly-Nicotinyl]^6 -Leu^7 -Lys(N-epsilon-Isopropyl)^8 -Pro^9 -DAla^10 NH2] (Ac-[d2Nal][dPhe(4-Cl)][d3Pal]S[NMeY][dK]([GABA-azaGly-Nicotinoyl])L[Lys(iPr)]P[dA]-NH2)	0.0407
CC(=O)N[C@H](Cc1ccc2ccccc2c1)C(=O)N[C@H](Cc1ccc(Cl)cc1)C(=O)N[C@H](Cc1cccnc1)C(=O)N[C@@H](CO)C(=O)N(C)[C@@H](Cc1ccc(O)cc1)C(=O)N[C@H](CCCCNC(=O)CCCCCNC(=O)CCNC(=O)c1cccnc1)C(=O)N[C@@H](CC(C)C)C(=O)N[C@@H](CCCCNC(C)C)C(=O)N1CCC[C@H]1C(=O)N[C@H](C)C(N)=O [Example 19a, NAc-D2Nal-D4ClPhe^2 -D3Pal^3 -Ser^4 -NMeTyr^5 -DLys[N-epsilon-(N'-epsilon-Aminocaproyl)(N"-beta-Alanyl)-Nicotinyl]^6-Leu^7 -Lys(N-epsilon-Isopropyl)^8 -Pro^9 -DAla^10 NH2] (Ac-[d2Nal][dPhe(4-Cl)][d3Pal]S[NMeY][dK]([Ahx-βAla-Nicotinoyl])L[Lys(iPr)]P[dA]-NH2)	0.024
CC(=O)N[C@H](Cc1ccc2ccccc2c1)C(=O)N[C@H](Cc1ccc(Cl)cc1)C(=O)N[C@H](Cc1cccnc1)C(=O)N[C@@H](CO)C(=O)N(C)[C@@H](Cc1ccc(O)cc1)C(=O)N[C@H](CCCCNC(=O)CCNC(=O)c1cccnc1)C(=O)N[C@@H](CC(C)C)C(=O)N[C@@H](CCCCNC(C)C)C(=O)N1CCC[C@H]1C(=O)N[C@H](C)C(N)=O [Example 4a] (Ac-[d2Nal][dPhe(4-Cl)][d3Pal]S[NMeY][dK]([βAla-Nicotinoyl])L[Lys(iPr)]P[dA]-NH2)	0.00562
CC(=O)N[C@H](Cc1ccc2ccccc2c1)C(=O)N[C@H](Cc1ccc(Cl)cc1)C(=O)N[C@H](Cc1cccnc1)C(=O)N[C@@H](CO)C(=O)N(C)[C@@H](Cc1ccc(O)cc1)C(=O)N[C@H](CCCCNC(=O)CCNC(=O)NNC(=O)c1cccnc1)C(=O)N[C@@H](CC(C)C)C(=O)N[C@@H](CCCCNC(C)C)C(=O)N1CCC[C@H]1C(=O)N[C@H](C)C(N)=O [Example 25a, NAc-D2Nal^1 -D4ClPhe^2 -D3Pal^3 -Ser^4 -NMeTyr^5 -DLys[N-epsilon-(beta-Alanyl)-Azagly-Nicotinyl]^6 -Leu^7 -Lys(N-epsilon-Isopropyl)^8 -Pro^9 -DAla^10 NH2] (Ac-[d2Nal][dPhe(4-Cl)][d3Pal]S[NMeY][dK]([βAla-azaGly-Nicotinoyl])L[Lys(iPr)]P[dA]-NH2)	0.0363
CC(=O)N[C@H](Cc1ccc2ccccc2c1)C(=O)N[C@H](Cc1ccc(Cl)cc1)C(=O)N[C@H](Cc1cccnc1)C(=O)N[C@@H](CO)C(=O)N(C)[C@@H](Cc1ccc(O)cc1)C(=O)N[C@H](CCCNC(=O)[C@@H](CO)NC(=O)c1cccnc1)C(=O)N[C@@H](CC(C)C)C(=O)N[C@@H](CCCNC(=N)N)C(=O)N1CCC[C@H]1C(=O)N[C@H](C)C(N)=O [Example 49b, NAc-D2Nal^1 -D4ClPhe^2 -D3Pal^3 -Ser^4 -NMeTyr^5 -DOrn(N-epsilon-DSer-Nicotinyl)^6 -Leu^7 -Arg^8 -Pro^9 -DAla^10 NH2] (Ac-[d2Nal][dPhe(4-Cl)][d3Pal]S[NMeY][dOrn]([dS-Nicotinoyl])LRP[dA]-NH2)	0.0155
CC(=O)N[C@H](Cc1ccc2ccccc2c1)C(=O)N[C@H](Cc1ccc(Cl)cc1)C(=O)N[C@H](Cc1cccnc1)C(=O)N[C@@H](CO)C(=O)N(C)[C@@H](Cc1ccc(O)cc1)C(=O)N[C@H](CCCCNC(=O)CCCCCNC(=O)c1cccnc1)C(=O)N[C@@H](CC(C)C)C(=O)N[C@@H](CCCCNC(C)C)C(=O)N1CCC[C@H]1C(=O)N[C@H](C)C(N)=O [Example 4e, NAc-D2Nal^1 -D4ClPhe^2 -D3Pal^3 -Ser^4 -NMeTyr^5 -DLys[N-epsilon-(N-epsilon-aminocaproyl)-Nicotinyl]^6 -Leu^7 -Lys(N-epsilon-Isopropyl)^8 -Pro^9 -DAla^10 NH2] (Ac-[d2Nal][dPhe(4-Cl)][d3Pal]S[NMeY][dK]([Ahx-Nicotinoyl])L[Lys(iPr)]P[dA]-NH2)	0.0339
CC(=O)N[C@H](Cc1ccc2ccccc2c1)C(=O)N[C@H](Cc1ccc(Cl)cc1)C(=O)N[C@H](Cc1cccnc1)C(=O)N[C@@H](CO)C(=O)N(C)[C@@H](Cc1ccc(O)cc1)C(=O)N[C@H](CCCCNC(=O)CNC(=O)c1cccnc1)C(=O)N[C@@H](CC(C)C)C(=O)N[C@@H](CCCCNC(C)C)C(=O)N1CCC[C@H]1C(=O)N[C@H](C)C(N)=O [Example 1, NAc-D2Nal^1 -D4ClPhe^2 -D3Pal^3 -Ser^4 -NMeTyr^5 -DLys(N-epsilon-Gly-Nicotinyl)^6 -Leu^7 -Lys(N-epsilon-Isopropyl)^8 -Pro^9 -DAla^10 NH2] (Ac-[d2Nal][dPhe(4-Cl)][d3Pal]S[NMeY][dK]([Gly-Nicotinoyl])L[Lys(iPr)]P[dA]-NH2)	0.00355
CC(=O)N[C@H](Cc1ccc2ccccc2c1)C(=O)N[C@H](Cc1ccc(Cl)cc1)C(=O)N[C@H](Cc1cccnc1)C(=O)N[C@@H](CO)C(=O)N(C)[C@@H](Cc1ccc(O)cc1)C(=O)N[C@H](CCCCNC(=O)[C@@H](CO)NC(=O)C1=C[C@@H](O)[C@@H](O)[C@H](O)C1)C(=O)N[C@@H](CC(C)C)C(=O)N[C@@H](CCCNC(=N)N)C(=O)N1CCC[C@H]1C(=O)N[C@H](C)C(N)=O [Example 11, NAc-D2Nal^1 -D4ClPhe^2 -D3Pal^3 -Ser^4 -NMeTyr^5 -DLys(N-epsilon-DSer-Shikimyl)^6 -Leu^7 -Arg^8 -Pro^9 -DAla^10 NH2] (Ac-[d2Nal][dPhe(4-Cl)][d3Pal]S[NMeY][dK]([dS-Shikimoyl])LRP[dA]-NH2)	0.017
CC(=O)N[C@H](Cc1ccc2ccccc2c1)C(=O)N[C@H](Cc1ccc(Cl)cc1)C(=O)N[C@H](Cc1cccnc1)C(=O)N[C@@H](CO)C(=O)N(C)[C@@H](Cc1ccc(O)cc1)C(=O)N[C@H](CCCCNC(=O)[C@@H](CO)NC(=O)CNC(=O)C1=C[C@@H](O)[C@@H](O)[C@H](O)C1)C(=O)N[C@@H](CC(C)C)C(=O)N[C@@H](CCCNC(=N)N)C(=O)N1CCC[C@H]1C(=O)N[C@H](C)C(N)=O [Example 48j, NAc-D2Nal^1 -D4ClPhe^2 -D3Pal^3 -Ser^4 -NMeTyr^5 -DLys(N-epsilon-D-Ser-Gly-Shikimyl)^6 -Leu^7 -Arg^8 -Pro^9 -DAla^10 NH2] (Ac-[d2Nal][dPhe(4-Cl)][d3Pal]S[NMeY][dK]([dS-Gly-Shikimoyl])LRP[dA]-NH2)	0.017
CC(=O)N[C@H](Cc1ccc2ccccc2c1)C(=O)N[C@H](Cc1ccc(Cl)cc1)C(=O)N[C@H](Cc1cccnc1)C(=O)N[C@@H](CO)C(=O)N(C)[C@@H](Cc1ccc(O)cc1)C(=O)N[C@H](CCCCNC(=O)CNC(=O)Cc1cccnc1)C(=O)N[C@@H](CC(C)C)C(=O)N[C@@H](CCCNC(=N)N)C(=O)N1CCC[C@H]1C(=O)N[C@H](C)C(N)=O [Example 65c, NAc-D2Nal^1 -D4ClPhe^2 -D3Pal^3 -Ser^4 -NMeTyr^5 -DLys(N-epsilon-Gly-3Pyridylacetyl)^6 -Leu^7 -Arg^8 -Pro^9 -DAla^10 NH2] (Ac-[d2Nal][dPhe(4-Cl)][d3Pal]S[NMeY][dK]([Gly-Acetyl(3-pyridyl)])LRP[dA]-NH2)	0.0288
CCC(=O)NNC(=O)NCCCC[C@@H](NC(=O)[C@H](Cc1ccc(O)cc1)N(C)C(=O)[C@H](CO)NC(=O)[C@@H](Cc1cccnc1)NC(=O)[C@@H](Cc1ccc(Cl)cc1)NC(=O)[C@@H](Cc1ccc2ccccc2c1)NC(C)=O)C(=O)N[C@@H](CC(C)C)C(=O)N[C@@H](CCCCNC(C)C)C(=O)N1CCC[C@H]1C(=O)N[C@H](C)C(N)=O [Example 58, NAc-D2Nal^1 -D4ClPhe^2 -D3Pal^3 -Ser^4 -NMeTyr^5 -DLys(N-epsilon-Azagly-Propionyl)^6 -Leu^7 -Lys(N-epsilon-Isopropyl)^8 -Pro^9 -DAla^10 NH2] (Ac-[d2Nal][dPhe(4-Cl)][d3Pal]S[NMeY][dK]([azaGly-Propionyl])L[Lys(iPr)]P[dA]-NH2)	0.0257
CC(=O)N[C@H](Cc1ccc2ccccc2c1)C(=O)N[C@H](Cc1ccc(Cl)cc1)C(=O)N[C@H](Cc1cccnc1)C(=O)N[C@@H](CO)C(=O)N(C)[C@@H](Cc1ccc(O)cc1)C(=O)N[C@H](CCCCNC(=O)NCCNC(=O)c1cccnc1)C(=O)N[C@@H](CC(C)C)C(=O)N[C@@H](CCCNC(=N)N)C(=O)N1CCC[C@H]1C(=O)N[C@H](C)C(N)=O [Example 14, NAc-D2Nal^1 -D4ClPhe^2 -D3Pal^3 -Ser^4 -NMeTyr^5 -DLys[N-epsilon-(N'-Carbonyl-Diaminoethane-N"-Nicotinyl)]^6 -Leu^7 -Arg^8 -Pro^9 -DAla^10 NH2] (Ac-[d2Nal][dPhe(4-Cl)][d3Pal]S[NMeY][dK]([CO-Ethylenediamine-Nicotinoyl])LRP[dA]-NH2)	0.166
